# Laboratory results: US11629201B2, “PSMA-binding agents and uses thereof” (ITM Isotope Technologies Munich SE, priority 2017, dated 2023)
# Assays:
# [1] = test system: PSMA-positive PC-3 PIP cells; test: Cell uptake and internalization in PSMA-positive PC-3 PIP cells; type: cell-based; settings: 2 h and 4 h time-point, PC-3 PIP cells
# [2] = test system: PC-3 PIP/flu tumor-bearing mice; test: Biodistribution studies in PC-3 PIP/flu tumor-bearing mice; settings: for Tumor-to-blood / Tumor-to-kidney / Tumor-to-liver: PC-3 PIP tumor
structure (smiles),measurement,setting,value
"Cc1ccc(CCCC(=O)NC(CC(=O)NC(CC(=O)NC(CC(=O)NC(CCCCNC(=O)CN2CCN(CC(=O)O)CCN(CC(=O)O)CCN(CC(=O)O)CC2)C(=O)NCC2CCC(C(=O)NC(Cc3ccc4ccccc4c3)C(=O)NCCCCC(NC(=O)NC(CCC(=O)O)C(=O)O)C(=O)O)CC2)C(=O)O)C(=O)O)C(=O)O)cc1 (stereo not shown) [^177Lu-PSMA-ALB-08, metal not drawn]",internalized fraction / internalization rate versus reference,[1],still comparable to ^177Lu-PSMA-617
same,Blood,[2]; 4 h p.i.,0.41 ± 0.18 % IA/g
same,Bone,[2]; 4 h p.i.,0.16 ± 0.03 % IA/g
same,Heart,[2]; 4 h p.i.,0.19 ± 0.07 % IA/g
same,Intestines,[2]; 4 h p.i.,0.20 ± 0.09 % IA/g
same,Kidneys,[2]; 4 h p.i.,27.2 ± 5.93 % IA/g
same,Liver,[2]; 4 h p.i.,0.27 ± 0.10 % IA/g
same,Lung,[2]; 4 h p.i.,0.48 ± 0.21 % IA/g
same,Muscle,[2]; 4 h p.i.,0.06 ± 0.03 % IA/g
same,PC-3 PIP Tumor,[2]; 4 h p.i.,46.9 ± 16.7 % IA/g
same,PC-3 flu Tumor,[2]; 4 h p.i.,0.25 ± 0.19 % IA/g
same,Salivary glands,[2]; 4 h p.i.,0.19 ± 0.06 % IA/g
same,Spleen,[2]; 4 h p.i.,0.53 ± 0.10 % IA/g
same,Stomach,[2]; 4 h p.i.,0.40 ± 0.25 % IA/g
same,Tumor-to-blood,[2]; 4 h p.i.,116 ± 9.46
same,Tumor-to-kidney,[2]; 4 h p.i.,1.70 ± 0.22
same,Tumor-to-liver,[2]; 4 h p.i.,177 ± 2.72
same,Blood,[2]; 24 h p.i.,0.08 ± 0.01 % IA/g
same,Bone,[2]; 24 h p.i.,0.07 ± 0.02 % IA/g
same,Heart,[2]; 24 h p.i.,0.04 ± 0.01 % IA/g
same,Intestines,[2]; 24 h p.i.,0.03 ± 0.01 % IA/g
same,Kidneys,[2]; 24 h p.i.,13.9 ± 2.32 % IA/g
same,Liver,[2]; 24 h p.i.,0.11 ± 0.02 % IA/g
same,Lung,[2]; 24 h p.i.,0.09 ± 0.02 % IA/g
same,Muscle,[2]; 24 h p.i.,0.02 ± 0.01 % IA/g
same,PC-3 PIP Tumor,[2]; 24 h p.i.,33.0 ± 5.04 % IA/g
same,PC-3 flu Tumor,[2]; 24 h p.i.,0.09 ± 0.05 % IA/g
same,Salivary glands,[2]; 24 h p.i.,0.07 ± 0.05 % IA/g
same,Spleen,[2]; 24 h p.i.,0.10 ± 0.03 % IA/g
same,Stomach,[2]; 24 h p.i.,0.03 ± 0.01 % IA/g
same,Tumor-to-blood,[2]; 24 h p.i.,421 ± 45.7
same,Tumor-to-kidney,[2]; 24 h p.i.,2.39 ± 0.24
same,Tumor-to-liver,[2]; 24 h p.i.,295 ± 40.1
same,Blood,[2]; 72 h p.i.,0.06 ± 0.02 % IA/g
same,Bone,[2]; 72 h p.i.,0.09 ± 0.05 % IA/g
same,Heart,[2]; 72 h p.i.,0.03 ± 0.01 % IA/g
same,Intestines,[2]; 72 h p.i.,0.02 ± 0.01 % IA/g
same,Kidneys,[2]; 72 h p.i.,7.98 ± 0.62 % IA/g
same,Liver,[2]; 72 h p.i.,0.12 ± 0.01 % IA/g
same,Lung,[2]; 72 h p.i.,1.28 ± 2.02 % IA/g
same,Muscle,[2]; 72 h p.i.,0.01 ± 0.01 % IA/g
same,PC-3 PIP Tumor,[2]; 72 h p.i.,24.1 ± 5.37 % IA/g
same,PC-3 flu Tumor,[2]; 72 h p.i.,0.09 ± 0.07 % IA/g
same,Salivary glands,[2]; 72 h p.i.,0.03 ± 0.02 % IA/g
same,Spleen,[2]; 72 h p.i.,0.11 ± 0.05 % IA/g
same,Stomach,[2]; 72 h p.i.,0.02 ± 0.01 % IA/g
same,Tumor-to-blood,[2]; 72 h p.i.,416 ± 89.5
same,Tumor-to-kidney,[2]; 72 h p.i.,3.02 ± 0.68
same,Tumor-to-liver,[2]; 72 h p.i.,207 ± 47.1
